This data set in a line: Bulk density determination of granules / drug substance. Type of data set: physicochemical. The source says: Generally, bulk density is the weight of a unit volume of material. Bulk density is also known as “apparent density.” Bulk density is typically expressed as a weight:volume ratio, for example, kilograms per liter (Kg/L) or grams per cubic centimeter (g/cm[…]). Bulk desntiy of a material can be measured by techniques that are well known in the art, by measuring the weight and volume of the material. See the Examples section of this application for exemplary techniques for measurement of bulk density.
The tap and bulk density determinations are performed as follows:
(a) A 250 mL glass cylinder is filled with formulation granules to the 100-200 mL volume mark.
(b) The mass of the cyclinder is recorded and the bulk density is determined by calculating the ratio of the mass of the formulation granules to the volume of the formulation granules.

Molecules are shown by their SMILES.

Regarding `CCN(CC)CCNC(=O)c1c(C)[nH]c(/C=C2\C(=O)Nc3ccc(F)cc32)c1C` [5-(5-fluoro-2-oxo-1,2-dihydro-indol-3-ylidenemethyl)-2,4-dimethyl-1H-pyrrole-3-carboxylic acid (2-diethylamino-ethyl)-amide], the bulk density result (salt by itself) is listed as “about 0.11±0.1”.
On to `Cc1[nH]c(/C=C2\C(=O)Nc3ccc(F)cc32)c(C)c1C(=O)NCC(O)CN1CCOCC1` (centres unmarked) [5-[(Z)-(5-fluoro-2-oxo-1,2-dihydro-3H-indol-3-ylidene)methyl]-N-[2-hydroxy-3-morpholin-4-ylpropyl]-2,4-dimethyl-1H-pyrrole-3-carboxamide], for which, where the note is “maleate salt by itself”, the bulk density is 0.05 to 0.07 kg/L.

For the origin of these results see patent US20040229930A1, “Formulations comprising a basic indolinone compound” (Pharmacia Italia S.p.A., priority 2002, published 2004).
